Like-named read-outs stand apart in the source and are kept apart here.
Experiments:
[1] = snar bond, 15-membered ring, (E)-but-2-ene-1,4-diamine 2HCl/DIPEA
[2] = the molecule shown is the open-chain precursor; snar bond; 15-membered ring; (E)-but-2-ene-1,4-diamine 2HCl/DIPEA; EtOH/THF 3:1; 46.0 mM; 105.0 °C

CCOC(=O)c1cc(OCC(COc2cc(C(=O)OCC)cc([N+](=O)[O-])c2Cl)N2CCOCC2)c(Cl)c([N+](=O)[O-])c1
ring closure, crude yield ([1]; the molecule shown is the open-chain precursor, EtOH/THF 7:1, 156.5 mM, 110.0 °C): 88%

CCOC(=O)c1cc(OCCCOc2cc(C(=O)OC(C)(C)C)cc([N+](=O)[O-])c2Cl)c(Cl)c([N+](=O)[O-])c1
ring closure, isolated yield [2]: 90%

CCOC(=O)c1cc(OCCCOc2cc(C(N)=O)cc([N+](=O)[O-])c2Cl)c(Cl)c([N+](=O)[O-])c1
ring closure, crude yield ([1]; the molecule shown is the open-chain precursor, EtOH/THF 3:1, 99.5 mM, 120.0 °C): 73%

CCOC(=O)c1cc(OC[C@H](COc2cc(C(=O)OC(C)(C)C)cc([N+](=O)[O-])c2Cl)N2C3CCC2COC3)c(Cl)c([N+](=O)[O-])c1
ring closure, crude yield ([1]; the molecule shown is the open-chain precursor, EtOH, 121.0 mM, 105.0 °C): 89.8%

diethyl (E)-7-(8-oxa-3-azabicyclo[3.2.1]octan-3-yl)-1,13-dinitro-7,8,14,15,18,19-hexahydro-6H-dibenzo[b,j][1,12]dioxa[4,9]diazacyclopentadecine-3,11-dicarboxylate
ring closure, crude yield ([1]; EtOH/THF 7.4:1, 148.0 mM, 110.0 °C): 88%

— patent US12479858B2, “Macrocyclic compounds as sting agonists and methods and uses thereof” (Lupin Limited, priority 2019, dated 2025)
